The test system of series [1] is secretion levels of IL-6 in PBMC cells. The series can be described thus: Inhibition of R848-induced IL-6 secretion in PBMC (IL-6 ELISA). The format is cell-based. Particulars: human PBMC, 20 h compound pre-incubation, 24 h stimulation. The method, then:
This experiment was carried out in RPMI 1640 medium containing 10% FBS/1% penicillin/streptomycin, with each of the compounds at an initial test concentration of 1 μM. The compound DMSO was dissolved to form a stock solution, which was gradiently diluted 4-fold with the culture medium to a 4× working solution concentration. The diluted solution was added to a 96-well plate with 50 μL per well. PBMC (batch No.: HPP20062307, Sichuan Hope Bio-tech Co., Ltd.) cells were counted, and diluted to a concentration of 2×10^6/mL. The diluted cells were added to the above compound-containing 96-well plate with 150 μL per well, fully mixed, and incubated in an incubator with 5% CO2 at 37° C. for 20 h. Then, R848 was further added until a final concentration of […], and the cells were further incubated in the incubator with 5% CO2 at 37° C. for additional 24 h. Then, after centrifugation at 2,000 rpm for 4 min, the supernatant was diluted 110×, and detected using an IL-6 ELISA kit. An OD450 value was read, and converted to an IL-6 concentration based on a standard curve, to calculate an IC50 value by fitting a dose-effect curve using GraphPad 5.0.
Background: In an ELISA, binding on a coated surface is turned into a signal by an enzyme label.

The next series concerns the target T1, IRAK4 protein (Homo sapiens, UniProt Q9NWZ3).
T1 construct: Effects of Compounds on IRAK4 Protein Degradation in THP1 Cells; endogenous in cells; host or cells: THP-1 cells
T1 sequence (Q9NWZ3 1-460): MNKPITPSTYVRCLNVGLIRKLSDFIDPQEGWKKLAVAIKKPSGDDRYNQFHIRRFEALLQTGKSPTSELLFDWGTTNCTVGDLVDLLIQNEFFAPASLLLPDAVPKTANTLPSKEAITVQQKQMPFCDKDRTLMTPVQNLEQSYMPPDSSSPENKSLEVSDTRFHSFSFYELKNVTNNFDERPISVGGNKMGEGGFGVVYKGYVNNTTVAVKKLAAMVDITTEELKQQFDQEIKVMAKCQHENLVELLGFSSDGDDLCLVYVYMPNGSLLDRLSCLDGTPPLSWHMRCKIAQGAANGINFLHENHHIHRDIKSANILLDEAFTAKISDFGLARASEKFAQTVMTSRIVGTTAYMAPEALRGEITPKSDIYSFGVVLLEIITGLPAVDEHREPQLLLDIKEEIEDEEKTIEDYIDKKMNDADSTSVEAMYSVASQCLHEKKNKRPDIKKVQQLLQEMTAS
The series can be described thus: IRAK4 protein degradation in THP1 cells (Western blot). The format is cell-based. Particulars: 24 h. As to the method: THP-1 cells were inoculated into a 96-well cell culture plate, with 5×10^4 cells and 100 μL of a culture medium per well. The cell culture plate was cultured in an incubator with 5% CO2 at 37° C. overnight. 100 nl of a well-prepared compound stock solution and a compound-free DMSO stock solution were respectively added to cells per well. The cell culture plate was incubated in an incubator with 5% CO2 at 37° C. for 24 h. One protease inhibitor tablet and one phosphatase inhibitor tablet were added to 20 mL of a cell lysis buffer, and they were gently mixed until complete dissolution. DTT at a final concentration of 200 mM was added to a 4× sample preparation buffer to prepare a 4× sample preparation working solution. 20× electrophoretic buffer was diluted to 1× with ultrapure water. 20× transfer buffer was diluted to 1× with ultrapure water, and 20% methanol was added. […] IRAK4 protein primary antibody working solution: 20 μl of IRAK4 antibody added to 20 mL of a blocking solution; β-Actin primary antibody working solution: 2 μl of beta-actin (13E5) Rabbit mAb antibody added to 20 mL of a blocking solution. IRAK4 protein secondary antibody working solution: Donkey Anti-Goat IgG H&L (HRP) diluted 1/5,000 in a blocking solution; 3-Actin secondary antibody working solution: Anti-rabbit IgG, RP-linked antibody diluted 1/10,000 in a blocking solution. The cell culture plate was centrifuged at 3,000 rpm for 3 min, and most of the culture medium was carefully pipetted. The cell plate was inverted, and centrifuged at 300 rpm for 30 s. 45 μL of a lysis buffer was added to each well. The mixture was shaken at 300 rpm for 30 s, allowed to stand on ice for 30 min, and pipetted 30 times at 20 min. 6 μL of 4× sample preparation working solution was added to 18 μL of protein supernatant for sample preparation, and the mixture was heated at 70° C. for 10 min. Remaining protein samples were stored at −80° C. In the precast gel, 8 μl of sample was loaded into each well for electrophoresis at a constant voltage of 120 V for about 60 min, transferred using a PVDF membrane at a constant current of 300 mA for 1 h, then blocked with a blocking solution at room temperature for 1 h, and incubated in a primary antibody working solution at 4° C. overnight. The membrane was washed with 1×TBST buffer for 3×10 min. The secondary antibody working solution was incubated at room temperature for 1 h. The membrane was washed with 1×TBST buffer for 3×10 min, and a chromogenic solution was used for exposure and color development.
On the technique in general: In western blotting, separated proteins are transferred to a membrane and probed.

Series [2] relates to secretion levels of IL-6 in PBMC cells. The series can be described thus: Inhibition of LPS+IL-1β-induced IL-6 secretion in PBMC (IL-6 ELISA). The format is cell-based. Particulars: human PBMC, 24 h compound pre-incubation, 20 h stimulation. The method, then: This experiment was carried out in RPMI 1640 medium containing 10% FBS/1% penicillin/streptomycin, with each of the compounds at an initial test concentration of 1 μM. The compound DMSO was dissolved to form a stock solution, which was gradiently diluted 5-fold with the culture medium to a 4× working solution concentration. The diluted solution was added to a 96-well plate with 50 μL per well. PBMC (batch No.: HPP20062307, Sichuan Hope Bio-tech Co., Ltd.) cells were counted, and diluted to a concentration of 2×10^6/mL. The diluted cells were added to the above compound-containing 96-well plate with 150 μL per well, fully mixed, and incubated in an incubator with 5% CO2 at 37° C. for 24 h. Then, LPS and […] were further added to final concentrations of 10 ng/mL and 20 ng/mL, respectively, and the cells were further incubated in the incubator with 5% CO2 at 37° C. for 20 h. Then, after centrifugation at 2,000 rpm for 4 min, the supernatant was diluted 110×, and detected using an IL-6 ELISA kit. An OD450 value was read, and converted to an IL-6 concentration based on a standard curve, to calculate an IC50 value by fitting a dose-effect curve using GraphPad 5.0.

A short description of series [3]: Pharmacokinetic experiment on mice (iv and ig). The format is in vivo. Particulars: mouse, plasma, BALB/c Mice; for Cmax: read-out: Peak plasma concentration Cmax.
Series [4] is described as follows: Pharmacokinetic experiment on SD rats (iv and ig). Type of series: in vivo. As to conditions: Sprague-Dawley, rat, plasma; for Cmax: read-out: Peak plasma concentration Cmax. As to the method:
Pharmacokinetic experiment on SD rats: in this experiment, two administration modes: oral intragastric administration and tail vein injection were selected. Each of the compounds of the present patented invention was administered at an oral dose of 5 mg/kg at an administration volume of 10 mL/kg. […] Appropriate amounts of Solutol and H2O were proportionally added sequentially, and fully mixed ultrasonically by vortexing, to prepare a clear drug solution at 0.5 mg/mL. ICL004-protodrug was administered by intravenous injection at a dose of 1 mg/kg at an administration volume of 10 mL/kg. Right before use, an appropriate amount of the drug was accurately weighed, to prepare a final volume of 20% PEG 400 and 80% Saline. Appropriate amounts of PEG 400 and Saline were proportionally added sequentially, and fully mixed ultrasonically by vortexing, to prepare a clear drug solution at 0.1 mg/mL.
6 SD rats, each with body weight of 180-220 g, were randomly grouped into 2 groups. After fasting but with free access to water overnight, each […] in the first group was administered by gavage. 200 μL of blood was sampled from its eye socket into an anticoagulant tube respectively at each time point of 15 min, 30 min, 1 h, 2 h, 4 h, 6 h, 8 h, and 24 h after administration. Within one h, each of the blood samples was centrifuged at 10,000 rpm at 4° C. for 20 min (the sample was stored on an ice box prior to the centrifugation), and the supernatant (i.e., the plasma) was stored in a refrigerator at −20° C. for LC-MS/MS analysis. 200 μL of blood was sampled from the eye socket of each […] in the second group into an anticoagulant tube respectively at each time point of 5 min, 15 min, 30 min, 1 h, 2 h, 4 h, 8 h, and 24 h after administration by intravenous injection. Within one h, each of the blood samples was centrifuged at 10,000 rpm at 4° C. for 20 min (the blood sample was stored on an ice box prior to the centrifugation), and the supernatant, i.e., the plasma, was stored in a refrigerator at −20° C. for LC-MS/MS analysis.

[5] abbreviates: po, ig 5.00 mg/kg vs iv 1.00 mg/kg, read-out: Oral bioavailability Fobs (%).

The source of these data is patent publication US20260146044A1, “AROMATIC COMPOUND, PHARMACEUTICAL COMPOSITION CONTAINING SAME, AND USE THEREOF” (Increland, priority 2023, published 2026).

On to `Cc1nn(C2CCC(=O)NC2=O)c2cccc(N3CC4CN(C[C@H]5CC[C@H](n6cc7cc(NC(=O)c8cnn9cccnc89)c(N8CCO[C@H](C)C8)cc7n6)CC5)CC4C3)c12` (some centres unmarked) [TM-55], for which the concentration for half-maximal inhibition (IC50) – broadly, the concentration that inhibits the measured activity by half – amounted to 5.09 nM in series [1] and 7.63 nM in series [2]. Moreover, on IRAK4 protein, half-maximal degradation (DC50) was put at 4.81 nM.

As to `Cc1nn(C2CCC(=O)NC2=O)c2cncc(N3CCC(CN4CCC(n5cc6cc(NC(=O)c7cnn8cccnc78)c(N(C)C)cc6n5)CC4)CC3)c12` (centres unmarked) [TM-106], at IRAK4 protein, half-maximal degradation (DC50) was put at 0.044 nM. Moreover, half-maximal inhibition in series [2] (IC50) required 54.9 nM.

For the compound `Cc1nn(C2CCC(=O)NC2=O)c2ccnc(N3CCC4(CC3)CN(C[C@H]3CC[C@H](n5cc6cc(NC(=O)c7cnn8cccnc78)c(N(C)C)cc6n5)CC3)C4)c12` (some centres unmarked) [TM-113], the DC50 (usually the concentration at which degradation of the target reaches its halfway point) on IRAK4 protein was 1.06 nM. The compound also registered an IC50 in series [2] of 0.62 nM.

As for `Cc1nn(C2CCC(=O)NC2=O)c2cccc(N3CCCN(C[C@H]4CC[C@H](n5cc6cc(NC(=O)c7cnn8cccnc78)c(N(C)C)cc6n5)CC4)CC3)c12` (some centres unmarked) [TM-96], half-maximal degradation on IRAK4 protein (DC50) was put at 0.58 nM. The compound also displayed an IC50 in series [2] of 7.18 nM.

As for `Cc1nn(C2CCC(=O)NC2=O)c2cccc(N3CCC(CN4CCC(N5Cc6cc(NC(=O)c7cnn8cccnc78)c(N(C)C)cc6C5=O)CC4)CC3)c12` (centres unmarked) [TM-66], the IC50 was found to be 262 nM in series [1] and 19.4 nM in series [2]. On IRAK4 protein, this compound came in with a DC50 of 0.57 nM.

In turn, `Cc1nn(C2CCC(=O)NC2=O)c2cccc(N3CCC4(CC3)CN(C[C@H]3CC[C@H](n5cc6cc(NC(=O)c7cnn8cccnc78)c(N(C)C)cc6n5)CC3)C4)c12` (some centres unmarked) [TM-101] had a DC50 on IRAK4 protein below 0.1 nM. The bioavailability (in general, dose-corrected exposure relative to a reference, in per cent) in series [3] (setting [5]) was determined as 20.1%; in series [4] (setting [5]) it was 11.1%. The AUC (commonly the area under the concentration-time curve, a measure of exposure) is 3370 ng·h/mL in series [3] (po, ig, 5.00 mg/kg); 3390 ng·h/mL in series [3] (iv, 1.00 mg/kg); 625 ng·h/mL in series [4] (iv, 1.00 mg/kg); 374 ng·h/mL in series [4] (po, ig, 5.00 mg/kg). Besides, the AUC(0-inf) (usually the area under the concentration-time curve extrapolated to infinity) came to 3550 ng·h/mL in series [3] (po, ig, 5.00 mg/kg); 3520 ng·h/mL in series [3] (iv, 1.00 mg/kg); 674 ng·h/mL in series [4] (iv, 1.00 mg/kg); 435 ng·h/mL in series [4] (po, ig, 5.00 mg/kg). For the same compound, the Cmax in series [3] (po, ig, 5.00 mg/kg) came out at 356 ng/mL; in series [3] (iv, 1.00 mg/kg), 580 ng/mL; in series [4] (iv, 1.00 mg/kg) it was 151 ng/mL; in series [4] (po, ig, 5.00 mg/kg), 23 ng/mL. For the same compound, in series [2], the IC50 is 1.17 nM.

`Cc1nn(C2CCC(=O)NC2=O)c2cccc(N3CCN(C[C@H]4CC[C@H](n5cc6cc(NC(=O)c7cnn8cccnc78)c(N7CCO[C@H](C)C7)cc6n5)CC4)CC3)c12` (some centres unmarked) [TM-54]: the IC50 in series [1] is 4.26 nM; in series [2] it was 6.29 nM.

`Cc1nn(C2CCC(=O)NC2=O)c2cccc(N3CC4CN(C[C@H]5CC[C@H](n6cc7cc(NC(=O)c8cnn9cccnc89)c(N(C)C)cc7n6)CC5)CC4C3)c12` (some centres unmarked) [TM-102] registered a DC50 on IRAK4 protein of 0.9 nM. The IC50 in series [2] is 5.94 nM.
